Patent US10329542B2, “HBV RNAse H purification and enzyme inhibitors” (Saint Louis University, priority 2012, dated 2019)
Entries after “also recorded” stand apart in the source; their conditions may differ.

How the values were obtained:
[1] = target: T1, human RNAseH1 (Homo sapiens, UniProt O60930); assay: Oligonucleotide-directed RNAseH assay, recombinant human RNAseH1; type: biochemical; details: for Inhibition of human RNAseH1: 10 μM, compared directly with HRHPL; for Activity vs. human RNAseH1: class by concentration giving inhibition (10, 20, 60 μM)
T1 construct: hexahistidine (N); made in house; host or cells: E. coli BL21 codon+
T1 sequence (O60930 1-286): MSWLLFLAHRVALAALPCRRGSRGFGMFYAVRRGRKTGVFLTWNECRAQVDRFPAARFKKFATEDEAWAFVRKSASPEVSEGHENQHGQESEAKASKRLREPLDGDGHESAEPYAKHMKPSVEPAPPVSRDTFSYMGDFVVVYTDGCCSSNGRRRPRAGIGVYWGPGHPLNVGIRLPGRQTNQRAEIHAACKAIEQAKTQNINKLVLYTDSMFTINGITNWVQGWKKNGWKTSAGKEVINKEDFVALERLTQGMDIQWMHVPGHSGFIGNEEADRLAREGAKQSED
Method in brief: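 His-tagged human RNAseH1, expressed in E. coli and titrated to an activity matching the HBV enzyme, was incubated with internally 32P-labelled RNA plus a complementary DNA oligonucleotide. Reactions ran for 90 min at 42 °C in 65 mM Tris pH 8.0, 190 mM NaCl and 5 mM MgCl2, with 1% DMSO. Cleavage was measured by SDS-PAGE autoradiography.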

[2] = tested on: HBV; assay: HBV genomic replication assays (Table 2); type: cell-based, Hepatitis B virus; details: class by active concentration
Method in brief: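 Huh7 cells transfected with HBV plasmid received compound at 10 or 50 μM, refreshed every 1-2 days. Core-particle DNA isolated 4-5 days post-transfection was analysed by Southern blot, with or without RNaseH. For the screen, replicating cells got 60, 20 or 6.7 μM, refreshed days 1-2, and plus-strand DNA was quantified on day 3 by cross-gap TaqMan PCR.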

[3] = tested on: HBV genotype H RNAseH; assay: Oligonucleotide-directed RNAseH cleavage assay, HBV genotype H; type: biochemical, Hepatitis B virus; details: for Residual activity at 10 uM, Genotype H: ± standard deviation, 3 to 7 replicates; for Residual activity at 10 uM, Genotype H / Inhibition of HBV genotype H RNAseH: 10 μM; for Inhibition of HBV genotype H RNAseH: below threshold of irrelevant controls
Method in brief: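 HBV RNAseH protein extracts mixed with internally ^32P-labeled RNA plus excess complementary DNA oligonucleotide (inverse-complement as negative control) in 65 mM Tris pH 8.0, 190 mM NaCl, 5 mM MgCl2, 1% DMSO; 90 min at 42° C. Cleavage products resolved by SDS-PAGE, quantified by autoradiography; IC50 by non-linear regression.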

[4] = tested on: HBV genotype C RNAseH; assay: Oligonucleotide-directed RNAseH cleavage assay, HBV genotype C; type: biochemical, Hepatitis B virus; details: class by concentration giving inhibition (10, 20, 60 μM)
Experimental: For the oligonucleotide-directed RNAseH cleavage assay (Gong et al., 2001), 6 μl protein extract (typical protein concentration 2.8 mg/ml) was mixed with 0.5 μg internally ^32P-labeled DRF+ RNA (nucleotides 2401-2605 of the duck HBV genome plus 60 nucleotides of flanking sequences from pBluescript) and 3 μg oligonucleotide D2507- or its corresponding negative control D2526+ on ice in 20 μl under the conditions in Table 1. Some reactions in FIG. 5 employed oligonucleotide D2543M-Sal or its D2453+ negative control as indicated. The reactions were incubated at 42° C. for 90 min. and terminated by addition of Laemmli protein loading buffer and boiling. The samples were resolved by 12% SDS-PAGE, the gels were stained with Coomassie blue to monitor protein loading, and labeled RNA was detected by autoradiography. Candidate inhibitors were dissolved in DMSO and added at the indicated concentrations during assembly of the reactions. Control reactions lacking the compounds contained DMSO as a vehicle control. The RNAseH autoradiograms were scanned and quantified with ImageJ. The oligonucleotides were: D2526+([…]; SEQ ID NO:8), D2507-([…]; SEQ ID NO:9), D2453+([…]; SEQ ID NO:10), and D2543M-Sal ([…]; SEQ ID NO:11).
Incremental improvements were developed in extraction of the HBV RNAseH from the bacterial cell pellets since the data were generated for Examples 1 and 2. Key among these was shifting from using a cup sonicator to a probe sonicator and reducing the duration of the sonication period from 3×60 second bursts to 3×20 second bursts. When the […] genotype C clone that had inconsistent activity under the old extraction conditions (FIG. 6C) was isolated under these conditions, it became consistently and robustly active (FIG. 16).

Row | Compound | Inhibition of human RNAseH1 [1] | Activity vs. human RNAseH1 [1] | Activity vs. HBV Genomic Replication [2] | Residual activity at 10 uM, Genotype H [3] [Percent DMSO control] | Activity vs. HBV Biochemical vs. gtC [4] | Inhibition of HBV genotype H RNAseH [3] | Effect on human RNAseH1 ([1]; 0, 5, or 20 μM) | Effect on human RNAseH1 activity ([1]; 0.02 to 100 μM, listed as βTJ) | IC50 ([3]; read-out: IC50 against HBV genotype H RNAseH) [nM]
1 | Cc1c2cc(O)c(=O)cc-2oc2cc(O)c(O)cc12 [Compound 8] | inhibited RNAseH1 well | +++ (+++ inhibition at 10 μM) | − (− no activity at 60 μM) | 74 ± 21 | – | – | – | – | –
2 | COc1cc2c(cc1Cc1cccc(Cl)c1F)c(=O)c(C(=O)O)cn2[C@H](CO)C(C)C [Compound 10, Elvitegravir, reference compound] | had no effect on RNAseH1 | − (− no inhibition at 60 μM) | − (− no activity at 60 μM) | 66 ± 21 | ++ (++ inhibition at 20 μM) | – | – | – | –
3 | Cc1nnc(C(=O)NC(C)(C)c2nc(C(=O)NCc3ccc(F)cc3)c(O)c(=O)n2C)o1 [Compound 11, Raltegravir, reference compound] | had no effect on RNAseH1 | − (− no inhibition at 60 μM) | − (− no activity at 60 μM) | 63 ± 21 | ++ (++ inhibition at 20 μM) | – | – | – | –
4 | NCc1ccc(-c2ccc(Cc3cc(=O)n(O)c4ncccc34)cc2)cc1 [Compound 12, napthyridinone] | inhibited it weakly | – | ++ (++, clear activity at <10 μM) | 17 ± 6 | +++ (+++ inhibition at 10 μM) | inhibited | – | – | –
5 | COc1ccc2ccccc2c1C=NNC(=O)c1cc(O)c(O)c(O)c1 [Compound 14] | – | – | − (− no activity at 60 μM) | 27 ± 13 | – | inhibited | – | – | –
6 | CCOc1ccc(-c2c3cc(O)c(=O)cc-3oc3cc(O)c(O)cc23)cc1 [Compound 30] | – | +++ (+++ inhibition at 10 μM) | + (+, activity detectable at >10 μM) | 37 ± 8 | ++ (++ inhibition at 20 μM) | – | – | – | –
7 | Cc1cc(=O)oc2cc(O)c(O)cc12 [Compound 34] | – | + (+ inhibition at 60 μM) | − (− no activity at 60 μM) | 33 ± 12 | +++ (+++ inhibition at 10 μM) | inhibited | – | – | –
8 | [N-]=[N+]=NCc1cccc(C(=O)CC(=O)C(=O)O)c1 [Compound 40] | – | – | − (− no activity at 60 μM) | 22 ± 2 | – | inhibited | – | – | –
9 | CC(C)c1ccc(O)c(=O)c(O)c1 [Compound 46, beta-thujaplicinol] | – | − (− no inhibition at 60 μM) | ++ (++, clear activity at <10 μM) | – | +++ (+++ inhibition at 10 μM) | – | had little effect on the human RNAseH1 | had no effect on RNAseH1 activity; also recorded: failed to inhibit recombinant human RNAseH1 | 2300 ± 1700
